# Reference: patent US20230414607A1, “METHODS OF TREATMENT” (BOW RIVER LLC, priority 2017, published 2023)
# “And” between values parts separate entries of the source, which are not always exact repeats. Identical values can stand only once. Like-named read-outs stand apart in the source and are kept apart here.
# Experiments:
# [1] = target: T1, CYP3A4 (Homo sapiens, UniProt P08684); conditions: for predicted lurasidone AUC levels (reported as GMR) greater than baseline: human
# Description: Blood plasma levels may be described in various ways, such as area under the plasma concentration curve (AUC) and peak plasma concentration (Cmax). Baseline levels and posaconazole interaction levels for CYP3A4 substrate drugs may be compared using the geometric mean ratio (GMR) of AUC and Cmax. […] GMR is the standard industry and regulatory method for assessing the ratio of change of a pharmacokinetic variable (such as AUC) relative to its own baseline value (e.g., in a patient that was not treated with posaconazole). Once the level of substrate drug (AUC or Cmax) during co-administration with posaconazole and a CYP3A4 substrate drug is known, a function can be derived using conventional pharmacological methods to estimate how the AUC or plasma level of the CYP3A4 substrate drug is expected to decay over time after stopping administration of posaconazole. Such a function can be used to provide a plot of the decay GMR of AUC (or Cmax) of the CYP3A4 substrate drug versus time due to its interaction with posaconazole, based on the stated half-life of posaconazole.
# The expected DDI decay curve can also be calculated for Cmax GMR by substituting Cmax during co-administration for AUC during co-administration in equation 1. As used herein, “expected levels” and “predicted levels” and the like, refer to the AUC or Cmax GMR values calculated using equation 1.
# [2] = target: T1, CYP3A4; conditions: in vivo
# Description: The reduced dose of the CYP3A4 substrate drug may be administered with posaconazole, the day after stopping posaconazole, or two or more days (e.g., as described herein) after stopping posaconazole.
# To mitigate this risk, in some embodiments the administration of the CYP3A4 substrate drug is contraindicated not just for co-administration with posaconazole, but the administration is also contraindicated for a period of time (e.g., 2 or more days) after stopping posaconazole beyond the label-prescribed delay of one day (i.e., contraindication for co-administration of the CYP3A4 substrate drug and posaconazole). In some embodiments, the present methods provide for administering the CYP3A4 substrate drug as soon as it is safe to do so, e.g., for time periods exceeding about 1 day, as described herein. […] This accounts for the need to treat the patient with the CYP3A4 substrate drug with no more delay (after stopping posaconazole) than is necessary, so that the risks of leaving such a patient untreated are minimized as much as possible.
# [3] = Example 1: pharmacokinetic study with posaconazole and lurasidone in obese subjects; type: in vivo, human
# Description: Inventors studied 6 obese male and female subjects (ages 18-50, BMI>35) taking Posaconazole oral tablets (300 mg qd) and Lurasidone (20 mg qd). Body weights and BMI measurements for the 6 subjects are provided below in Table 1.
# Subjects were dosed with Lurasidone alone on Day 1, then subsequently dosed to steady-state Posaconazole levels, with a loading dose of 300 mg twice a day on Day 2 and 300 mg once a day thereafter over a period of 14 days. Posaconazole administration was then stopped and Lurasidone (20 mg qd) administered 2, 4, and 6 days after administration had ceased (studies days 17, 19, and 21 respectively).
# [4] = system: CYP3A; assay: Example 2: lurasidone pharmacokinetics during and after posaconazole (drug-drug interaction); type: in vivo; conditions: human; for half-life: plasma, oral, read-out: Lurasidone elimination half-life, arithmetic mean ± S.E. (converted)
# [5] = cited from earlier work
# [6] = cited from earlier work; remark: listed apart in the source
# [7] = 2 days after stopping posaconazole
# T1 sequence (P08684 whole entry): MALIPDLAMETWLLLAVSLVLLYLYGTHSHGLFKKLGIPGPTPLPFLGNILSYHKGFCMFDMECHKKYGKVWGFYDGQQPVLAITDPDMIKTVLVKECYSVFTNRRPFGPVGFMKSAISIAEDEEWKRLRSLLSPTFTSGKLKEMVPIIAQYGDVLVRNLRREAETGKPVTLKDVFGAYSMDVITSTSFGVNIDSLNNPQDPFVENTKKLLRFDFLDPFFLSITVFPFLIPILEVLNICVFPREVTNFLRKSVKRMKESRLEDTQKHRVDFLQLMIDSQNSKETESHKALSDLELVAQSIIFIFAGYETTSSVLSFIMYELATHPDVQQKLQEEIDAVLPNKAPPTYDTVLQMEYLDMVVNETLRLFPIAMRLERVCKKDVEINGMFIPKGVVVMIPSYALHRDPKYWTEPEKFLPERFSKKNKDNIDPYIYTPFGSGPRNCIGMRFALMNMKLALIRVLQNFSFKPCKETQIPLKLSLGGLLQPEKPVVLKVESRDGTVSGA
smiles,measurement,setting,value
O=C1[C@@H]2[C@H]3CC[C@H](C3)[C@@H]2C(=O)N1C[C@@H]1CCCC[C@H]1CN1CCN(c2nsc3ccccc23)CC1 [lurasidone],day after stopping posaconazole on which predicted AUC reaches baseline,[1],~9 days
same,predicted lurasidone AUC levels (reported as GMR) greater than baseline,[1]; 1 day after stopping posaconazole,about 400%
same,predicted lurasidone AUC levels (reported as GMR) greater than baseline,[1]; [7],about 300%
same,"actual AUC levels, fold greater than expected",[2]; [7],about 2 fold
same,"actual AUC levels, fold greater than expected",[2]; 3 days after stopping posaconazole,2-3 fold
same,"actual AUC levels, fold greater than expected",[2]; 4 days after stopping posaconazole,2.5-3.5 fold
same,Lurasidone AUC Ratio relative to Day 1,"[3]; Day 17, 2 days after Posaconazole was stopped, individual obese subjects",2.98 and 1.78
same,AUC,"[3]; both sexes, human, in vivo, 20 mg, Day 17, 2 days after Posaconazole was stopped, individual obese subjects",196 ng·h/mL
same,post-Posaconazole treatment mean AUC ratio values for Lurasidone,"[3]; both, human, in vivo",3.6-4.3 ×
same,"post-Posaconazole treatment mean AUC ratios of Lurasidone, times higher than the baseline","[3]; both, human, in vivo",about 3 times
same,"Corrected Cmax, arithmetic mean ± standard error","[4]; in vivo, 20 mg",19.8 ± 4 ng/mL
same,Cmax,"[4]; in vivo, 20 mg, Corrected Cmax, arithmetic mean ± standard error",17.1 ± 1.6 ng/mL
same,half-life,"[4]; 20 mg, Normal, Day 1 (baseline)",9.4 h
same,half-life,"[4]; 20 mg, Normal, Day 20 (posaconazole given Days 4-17)",39 ± 3 h
same,half-life,"[4]; 20 mg, Normal, Day 23 (posaconazole given Days 4-17)",48 ± 5 h
same,half-life,"[4]; 20 mg, Normal, Day 26 (posaconazole given Days 4-17)",50 ± 7 h
same,half-life,"[4]; 20 mg, Normal, Day 30 (posaconazole given Days 4-17)",45 ± 9 h
same,half-life,"[4]; 20 mg, Obese, Day 1 (baseline)",10.9 h
same,half-life,"[4]; 20 mg, Obese, Day 20 (posaconazole given Days 4-17)",48 ± 4 h
same,half-life,"[4]; 20 mg, Obese, Day 23 (posaconazole given Days 4-17)",52 ± 3 h
same,half-life,"[4]; 20 mg, Obese, Day 26 (posaconazole given Days 4-17)",61 ± 4 h
same,half-life,"[4]; 20 mg, Obese, Day 30 (posaconazole given Days 4-17)",71 ± 5 h
same,half-life,"[4]; Normal, Day 14 (with posaconazole)",37 ± 4 h
same,half-life,"[4]; Obese, Day 14 (with posaconazole)",38 ± 2 h
same,increase in the AUC of lurasidone associated with somnolence,[5]; about 3 fold increase in GMR,about 300%
same,increase in AUC of lurasidone associated with akathisia,[5]; about 4 fold increase in GMR,400%
same,normal baseline AUC: mean AUC0-tau,[6]; 120 mg lurasidone in the fed state after a 350 kcal meal,about 743 ng*h/mL
same,normal baseline Cmax: mean Cmax,[6]; 120 mg lurasidone in the fed state following a 350 kcal meal,about 160 ng/mL
